Experimental data from US7829728B2, “Diarymethyl and related compounds” (Theravance, Inc., priority 2003, dated 2010).

Experiments:
[1] = target: T1, human β2 adrenergic receptor (Homo sapiens, UniProt P07550); test: Whole-cell cAMP Flashplate assay with a lung epithelial cell line (BEAS-2B) endogenously expressing human β2 adrenergic receptor (Assay Test Procedure E); assay type: cell-based; settings: BEAS-2B human lung epithelial cells, endogenous receptor
Protocol: For the determination of agonist potencies and efficacies (intrinsic activities) in a cell line expressing endogenous levels of the β2 adrenergic receptor, a human lung epithelial cell line (BEAS-2B) was used (ATCC CRL-9609, American Type Culture Collection, Manassas, Va.) (January B, et al., British Journal of Pharmacology, 1998, 123, 4, 701-11). Cells were grown to 75-90% confluency in complete, serum-free medium (LHC-9 MEDIUM containing Epinephrine and Retinoic Acid, cat #181-500, Biosource International, Camarillo, Calif.). […] On the day of the assay, cells were rinsed with PBS, lifted by scraping with 5 mM EDTA in PBS, and counted. […] Plates were sealed, incubated over night at 4° C. and counted the next morning in a Topcount scintillation counter (Packard BioScience Co., Meriden, Conn.). The amount of cAMP produced per mL of reaction was calculated based on the counts observed for samples and cAMP standards, as described in the manufacturer's user manual. Data were analyzed by nonlinear regression analysis with the GraphPad Prism Software package (GraphPad Software, Inc., San Diego, Calif.) using the 4-parameter model for sigmoidal dose-response. […]

[2] = target: T1, human β2 adrenergic receptor; test: Radioligand binding assay for human β2 adrenergic receptor (Assay Test Procedure A); set-up: expressed in transfected cells; host or cells: CHO cells, membranes; settings: receptor subtype selectivity, human β1 versus β2
Protocol: Chinese hamster ovarian (CHO) cell lines stably expressing cloned human β1, β2 or β3 adrenergic receptors, respectively, were grown to near con fluency in Hams F-12 media with 10% FBS in the presence of 500 μg/mL Geneticin. The cell monolayer was lifted with 2 mM EDTA in PBS. Cells were pelleted by centrifugation at 1,000 rpm, and cell pellets were either stored frozen at −80° C. or membranes were prepared immediately for use. For preparation of β1 and β2 receptor expressing membranes, cell pellets were re-suspended in lysis buffer (10 mM HEPES/HCl, 10 mM EDTA, pH 7.4 at 4° C.) and homogenized using a tight-fitting Dounce glass homogenizer (30 strokes) on ice. […] The protein concentration of the membrane suspension was determined by the methods described in Lowry et al., 1951, Journal of Biological Chemistry, 193, 265; and Bradford, Analytical Biochemistry, 1976, 72, 248-54. […]
Binding assays were performed in 96-well microtiter plates in a total assay volume of 100 μL with 10-15 μg of membrane protein containing the human β1, β2 or β3 adrenergic receptors in assay buffer (75 mM Tris/HCl pH 7.4 at 25° C., 12.5 mM MgCl2, 1 mM EDTA, 0.2% BSA). […] Non-specific binding was determined in the presence of 10 μM propranolol. […] Filter plates were washed three times with filtration buffer (75 mM Tris/HCl pH 7.4 at 4° C., 12.5 mM MgCl2, 1 mM EDTA) to remove unbound radioactivity. […]

T1 sequence (P07550 whole entry): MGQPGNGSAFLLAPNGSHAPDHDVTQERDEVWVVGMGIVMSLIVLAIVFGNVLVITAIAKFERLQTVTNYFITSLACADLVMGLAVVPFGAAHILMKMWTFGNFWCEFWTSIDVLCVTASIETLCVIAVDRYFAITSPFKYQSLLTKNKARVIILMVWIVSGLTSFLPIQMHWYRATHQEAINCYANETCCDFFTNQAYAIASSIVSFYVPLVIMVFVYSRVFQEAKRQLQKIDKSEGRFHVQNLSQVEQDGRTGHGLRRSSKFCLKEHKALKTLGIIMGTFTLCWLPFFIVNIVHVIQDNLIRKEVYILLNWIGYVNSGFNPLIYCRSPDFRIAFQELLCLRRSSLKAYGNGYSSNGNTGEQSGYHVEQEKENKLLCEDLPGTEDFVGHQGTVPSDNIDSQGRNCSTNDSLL

In the case of `NC(=O)C(c1ccccc1)(c1ccccc1)[C@@H]1CCN(CCCCCCCCCNCC(O)c2ccc(O)c3[nH]c(=O)ccc23)C1` (mixture of isomers) [Example 1, 2-((S)-1-{9-[2-Hydroxy-2-(8-hydroxy-2-oxo-1,2-dihydroquinolin-5-yl)ethylamino]-nonyl}pyrrolidin-3-yl)-2,2-diphenylacetamide], the EC50 [1] is reported as < 0.01 µM and the “ratio of Ki(β1)/Ki(β2)” value [2] is reported as “greater than 8”.
